What was measured:
[1] = Visual evaluation of the alkalizers' lightening power; settings: conclusion from Tables 5 and 6, comparison of alkalizers
Excerpt: The examples above show hair lightening and hair coloring compositions. […]

[2] = Minolta L.A.B. (CIELAB) evaluation of lightening power on hair tresses; settings: FIG. 1
Description: In all examples, the ΔE values were measured using a L.A.B. reading using the color measurement method of CIELAB which is used to mathematically compute and compare the color of hair tresses. The method was developed by CIE using L*, a* and b* values. L* represents the difference between light (where L*=100) and dark (where L* is 0); a represents the difference between green ([…]) and red (+a*); and b* represents the difference between yellow (+b*) and blue (−b*). This system then maps true color to a place on a three dimensional graph wherein the variables are calculated by the changes in their values and those changes are used to compute the ΔE value which is a change in color. Such a system is commercially known and used in the art.

SMILES | lift on the darker hair [1] | lift when added to ammonium hydroxide and MEA, versus the same component alone [2]
N [ammonium hydroxide] | highest amount of lift | –
O=[Si]([O-])[O-].[Na+].[Na+] [sodium metasilicate] | – | synergistic lift
